Assay results as given in patent US20210369714A1, “Prevention and Treatment of Osteoarthritis by Inhibition of Insulin Growth Factor-1 Signaling” (The Regents of the University of California, priority 2018, published 2021).

Test system: ATDC5 cells
Assay: IGF1 stimulated MMP-9/MMP-13 expression in chondrocytes (quantitative real-time PCR)
Format: cell-based
Conditions: preliminary dose finding experiments, free inhibitor, data not shown
Experimental: Here, we investigated the therapeutic role of the IGF1R inhibitor (NVP-AEW541) in PTOA development. NVP-AEW541 (IGF1Ri) was incorporated into the polyethylene glycol dimethacrylate (PEG-DMA) hydrogel carriers (microrods) for prolonged local delivery in the joint space following ACL rupture (ACLR). […] The left knee served as the control (CON). 1 day after the TCO, vehicle (Veh) or microrods loaded with inhibitor (IGF1Ri/rod) was injected into the injured knee. […] As determined by μCT, compared with the CON knee, ACLR decreased BV/TV (24%) in the subchondral bone, while the IGF1Ri/rod treatment (Tx) prevented the bone loss. […] As indicated by IHC, ACLR increased the number of PCNA positive articular chondrocytes and MMP-13 production in the Veh-treated injured knee, but these effects were blunted in the IGF1Ri-treated injured knee. Moreover, ACLR increased the production of VEGF, resulting in vessel formation within articular cartilage (as indicated by CD31) in the Veh -treated injured knee, but these effects were blocked in the IGF1Ri-treated injured knee.
FIG. 7. […] The mRNA levels of MMP-9 (upper panel) and MMP-13 (lower panel) were determined by quantitative real-time PCR. […] Results are expressed as percentage of L-19 (house keeper gene) expression (mean±SD) of triplicate determinations. *: p<0.05 IGF-1 treated cultures vs. vehicle treated cultures.

SMILES: Cl.Cl.Nc1ncnc2c1c(-c1cccc(OCc3ccccc3)c1)cn2[C@H]1C[C@@H](CN2CCC2)C1 [NVP-AEW541, 7-[cis-3-(1-azetidinylmethyl)cyclobutyl]-5-[3-(phenylmethoxy)phenyl]-7H-pyrrolo[2,3-d]pyrimidin-4-amine, dihydrochloride]
- blocking IGF1 stimulated MMP9 and MMP13 expression: highly effective
